What all share (settings): Compound concentration 25.0 uM, Protein concentration 2.0 uM
Test [1] has as its target YEATS domain-containing protein 4 (Homo sapiens) (UniProt O95619). As to the kind of experiment: Thermal Shift Assay. Domain: start/stop V16-K225.
In test [2] the target is T1, Protein AF-9 (Homo sapiens) (UniProt P42568).
T1 sequence (whole entry): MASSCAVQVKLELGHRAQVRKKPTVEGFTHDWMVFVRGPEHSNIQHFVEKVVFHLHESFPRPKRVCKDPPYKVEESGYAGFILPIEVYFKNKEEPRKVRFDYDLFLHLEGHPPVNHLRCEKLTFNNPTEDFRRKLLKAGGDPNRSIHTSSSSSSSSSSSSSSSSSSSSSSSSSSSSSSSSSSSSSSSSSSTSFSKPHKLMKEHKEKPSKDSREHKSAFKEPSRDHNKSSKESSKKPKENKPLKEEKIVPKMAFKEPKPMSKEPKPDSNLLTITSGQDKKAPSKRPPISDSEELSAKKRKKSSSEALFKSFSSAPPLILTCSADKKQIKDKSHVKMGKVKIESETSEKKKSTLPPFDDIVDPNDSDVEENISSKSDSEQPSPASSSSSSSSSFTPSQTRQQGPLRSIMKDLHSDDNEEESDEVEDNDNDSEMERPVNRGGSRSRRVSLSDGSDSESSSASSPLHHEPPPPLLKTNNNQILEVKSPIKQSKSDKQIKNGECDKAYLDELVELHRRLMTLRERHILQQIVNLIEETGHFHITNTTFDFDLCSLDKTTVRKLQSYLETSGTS
Description: Thermal Shift Assay. Domain: start/stop M1-D141

The target in test [3] is T2, Protein ENL (Homo sapiens) (UniProt Q03111).
T2 sequence (whole entry): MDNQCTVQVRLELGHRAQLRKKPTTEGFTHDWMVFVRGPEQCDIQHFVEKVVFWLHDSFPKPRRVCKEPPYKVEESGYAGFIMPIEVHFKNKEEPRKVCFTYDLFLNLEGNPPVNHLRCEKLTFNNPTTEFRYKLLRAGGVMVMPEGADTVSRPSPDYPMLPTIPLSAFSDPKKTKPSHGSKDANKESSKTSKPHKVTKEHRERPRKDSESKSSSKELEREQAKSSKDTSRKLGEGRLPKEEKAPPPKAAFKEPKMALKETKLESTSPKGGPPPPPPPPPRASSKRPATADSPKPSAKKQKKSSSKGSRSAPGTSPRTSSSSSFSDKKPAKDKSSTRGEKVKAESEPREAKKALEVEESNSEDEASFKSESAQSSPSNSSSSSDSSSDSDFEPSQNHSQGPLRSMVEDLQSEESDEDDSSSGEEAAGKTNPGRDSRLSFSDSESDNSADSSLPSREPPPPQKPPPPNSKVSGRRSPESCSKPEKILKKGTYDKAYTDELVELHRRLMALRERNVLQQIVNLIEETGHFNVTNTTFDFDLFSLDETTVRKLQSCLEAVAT
As to the kind of experiment: Thermal Shift Assay. Domain: start/stop M1-A148.

Chain of YEATS domain-containing protein 4 (Homo sapiens) (O95619 whole entry, the tested form may be a part): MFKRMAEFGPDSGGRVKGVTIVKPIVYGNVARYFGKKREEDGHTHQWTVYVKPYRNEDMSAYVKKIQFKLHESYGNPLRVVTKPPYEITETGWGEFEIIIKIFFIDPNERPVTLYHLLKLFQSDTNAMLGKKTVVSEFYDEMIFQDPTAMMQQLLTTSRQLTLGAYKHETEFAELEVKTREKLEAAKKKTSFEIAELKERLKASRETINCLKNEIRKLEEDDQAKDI

As to `CN(C)C(=O)c1ccc(-c2cc(C(=O)N[C@@H]3CCc4ccccc43)no2)cc1O`, the ΔTm in test [1] is -0.19 c; in test [2] it was 5.15 c; in test [3] it was 3.61 c.
